Values quoted from earlier work as cited in patent publication US9067940B2, “Alicyclic derivatives of N,N'-substituted 3,7-diazabicyclo[3.3.1]nonanes and medicaments based thereon” (priority 2011, dated 2015).
Blank lines part the entries; values can stand above or below the molecule they belong to.

Key:
[1] = test system: AMPA receptors; conditions: adult rats, 0.3-3 mg/kg
[2] = test system: AMPA receptors
[3] = test system: NMDA-mediated signals
[4] = test system: AMPA receptors; conditions: only at high concentrations
[5] = behavioral models
[6] = mice suffering from diabetes

Molecule: O=C(c1ccc2c(c1)OCCO2)N1CCCCC1 [CX546]
- social memory [1]: improves social memory

B1: BDNF: brain-derived neurotrophic factor, a neural tissue growth factor (protein, UniProt P23560 19-247, looked up)
Neurotrophic factor BDNF …: APMKEANIRGQGGLAYPGVRTHGTLESVNGPKAGSRGLTSLADTFEHVIEELLDEDQKVRPNEENNKDADLYTSRVMLSSQVPLEPPLLFLLEEYKNYLDAANMSMRVRRHSDPARRGELSVCDSISEWVTAADKKTAVDMSGGTVTVLEKVPVSKGQLKQYFYETKCNPMGYTKEGCRGIDKRHWNSQCRTTQSYVRALTMDSKKRIGWRFIRIDTSCVCTLTIKRGR
- antidepressant effect [5]: antidepressant effect
- blood glucose concentration [6]: reduce the blood glucose concentration

Second part, led by results:

- aniracetam-like effects ([2]; metabolite of aniracetam): no aniracetam-like effects
Molecule: COc1ccc(C(=O)NCCCC(=O)O)cc1 [anisoyl-GABA]

- effect on synaptic signal at several hippocampus sites [2]: enhances the synaptic signal
- concentration at which the clinical effect is manifested [4]: 0.1 mM
Molecule: COc1ccc(C(=O)N2CCCC2=O)cc1 [aniracetam]
- effect on NMDA-mediated signals [3]: no effect
